Data on nine molecules can be found in ChEMBL document CHEMBL3763070, “Development of CINPA1 analogs as novel and potent inverse agonists of constitutive androstane receptor” (Eur J Med Chem, 2016).

As a reminder, the IC50 is the concentration that gives 50% inhibition.

The experiment concerns the target T1, Nuclear receptor subfamily 1 group I member 3 (Homo sapiens, UniProt Q14994).
T1 sequence (Q14994 whole entry): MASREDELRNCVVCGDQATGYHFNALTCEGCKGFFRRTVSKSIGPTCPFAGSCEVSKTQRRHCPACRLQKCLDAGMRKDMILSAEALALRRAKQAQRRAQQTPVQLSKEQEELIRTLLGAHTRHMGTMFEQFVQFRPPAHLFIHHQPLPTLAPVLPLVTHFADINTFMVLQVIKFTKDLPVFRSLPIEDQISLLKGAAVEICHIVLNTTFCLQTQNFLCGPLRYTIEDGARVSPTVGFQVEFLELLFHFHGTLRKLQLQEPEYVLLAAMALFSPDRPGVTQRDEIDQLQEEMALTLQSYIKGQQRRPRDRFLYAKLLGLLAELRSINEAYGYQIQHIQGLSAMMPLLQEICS
Description: Inverse agonist activity at GST tagged-human CAR-LBD assessed as reduction in fluorescein-PGC1 alpha coactivator recruitment after 1 hr by TR-FRET assay. (In general: TR-FRET usually uses a lanthanide donor and a delayed reading to cut background.)
For `CCOC(=O)Nc1ccc2c(c1)N(C(=O)CN)c1ccccc1CC2`, the IC50 is over 70000 nM. With `CC(C)OC(=O)Nc1ccc2c(c1)N(C(=O)COC1CCCC1)c1ccccc1CC2`, the IC50 came to 19.5 nM. For `CC(C)OCC(=O)N1c2ccccc2CCc2ccc(NC(=O)OC(C)(C)C)cc21` the value was 116 nM; for `O=C(Nc1ccc2c(c1)N(C(=O)Cn1cccc1)c1ccccc1CC2)OC1CCCCC1`, 11.7 nM; for `CCCN(CCC)CC(=O)N1c2ccccc2CCc2ccc(NC(=O)OC(C)C)cc21`, 116 nM. For `CCN(CC)CC(=O)N1c2ccccc2CCc2ccc(NC(=O)OC(C)(C)C)cc21` the value was 1030 nM. As to `CC(C)(C)OC(=O)Nc1ccc2c(c1)N(C(=O)Cn1cccc1)c1ccccc1CC2`, the IC50 is 31.9 nM. For `CCN(CC)CC(=O)N1c2ccccc2CCc2ccc(NC(=O)OC(C)C)cc21` the value was 680 nM; for `CC(C)(C)OC(=O)Nc1ccc2c(c1)N(C(=O)CN1CCCCC1)c1ccccc1CC2`, 216 nM.
